These results are taken from US20240239767A1 (AstraZeneca AB, priority 2022, published 2024).

Assay [1] has as its target T1, PCSK9 (Homo sapiens, UniProt Q8NBP7, G670E/V474I). Put plainly: biochemical.
Target sequence in this assay (Q8NBP7 with tags, fused parts or gaps V474I/G670E): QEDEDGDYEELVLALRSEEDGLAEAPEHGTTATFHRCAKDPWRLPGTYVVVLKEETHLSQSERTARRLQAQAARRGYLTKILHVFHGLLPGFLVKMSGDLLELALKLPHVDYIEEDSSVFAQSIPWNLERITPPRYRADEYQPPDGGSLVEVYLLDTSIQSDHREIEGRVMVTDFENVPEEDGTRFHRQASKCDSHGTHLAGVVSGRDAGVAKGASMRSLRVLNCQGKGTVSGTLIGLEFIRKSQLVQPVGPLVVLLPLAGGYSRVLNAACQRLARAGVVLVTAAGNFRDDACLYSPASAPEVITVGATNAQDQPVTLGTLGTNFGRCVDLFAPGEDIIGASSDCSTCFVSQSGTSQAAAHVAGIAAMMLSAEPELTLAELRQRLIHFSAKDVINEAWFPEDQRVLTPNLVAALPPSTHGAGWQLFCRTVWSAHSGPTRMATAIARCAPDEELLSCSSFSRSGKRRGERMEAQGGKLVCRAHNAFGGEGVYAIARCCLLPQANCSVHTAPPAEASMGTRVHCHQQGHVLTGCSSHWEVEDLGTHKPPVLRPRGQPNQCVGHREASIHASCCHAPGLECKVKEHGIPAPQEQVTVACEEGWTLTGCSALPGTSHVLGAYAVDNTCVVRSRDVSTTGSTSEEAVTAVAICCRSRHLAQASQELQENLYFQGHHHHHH
Assay [2] deals with T2, potassium ion channel hERG (human Ether-á-go-go-Related Gene) (Homo sapiens, UniProt Q12809).
T2 construct: expressed in transfected cells; host or cells: Chinese hamster ovary K1 (CHO)
Put plainly: Assay 5 - hERG assay (SyncroPatch 384PE patch clamp, CHO cells). In kind it is cell-based. The following applies: geometric mean, CHO cells over-expressing hERG, read-out: Assay 5 (hERG Hu CHO IF EPh CR-Syncro) GMean IC50. Here is the method: Assay 5—hERG Assay (Human Ether-á-go-go-Related Gene)
This assay (human Ether-á-go-go-Related Gene) measures activity of the compounds at the potassium ion channel hERG (human Ether-á-go-go-Related Gene).
Experiments were performed on the SyncroPatch 384PE high throughput patch clamp platform at room temperature and medium resistance chips with 4 patch holes per site. Chinese hamster ovary K1 (CHO) cell lines over-expressing the ion channel of choice (hERG) were used in assay-ready format and kept in liquid nitrogen or were used from live culture. Cells were either thawed and diluted in HBSS or were detached from flasks and resuspended in HBSS. HBSS comprised 140 mM NaCl, 4 mM KCl, 10 mM HEPES and 5 mM Glucose (pH 7.4). The internal patch clamp solution was KF 120 mM, KCl 20 mM, HEPES 10 mM, EGTA 10 mM, and 25 μM Escin (pH 7.2). After the sealing process was complete, the external solution was exchanged for external patch clamp solution comprising NaCl 80 mM, KCl 4 mM, HEPES 10 mM, CaCl2 2 mM, MgCl2 1 mM, glucose 5 mM, and NMDG 60 mM (pH 7.4). All solutions were stored at room temperature, except Escin, which was stored at 4° C. All test compounds were dispensed in greiner-bio 384 well plates and tested in a 6 point cumulative assay (final DMSO concentration 0.33%). Only wells that passed previously agreed acceptance criteria for this platform were used in this analysis (30 MegaOhm seal resistance, Z prime>0.4 and current size>0.2 nA).
(Block of hERG is tested as a sign of cardiac risk.)

For assay [3], the target named is GSK3b (Glycogen synthase kinase-3 beta) (Homo sapiens, UniProt P49841). Put plainly: Assay 6 - GSK3b assay (ThermoFisher, FRET Z-Lyte). In kind it is biochemical. The following applies: geometric mean; ATP Conc: 10.000 μM; read-out: Assay 6 (GSK3B FRET-Z-Lyte CR) GMean IC50 (μM) ATP Conc: 10.000. As to the method: This assay measures the activity of the compounds at GSK3b (Glycogen synthase kinase-3 beta).
GSK3b (Glycogen synthase kinase-3 beta), sequence (P49841 whole entry): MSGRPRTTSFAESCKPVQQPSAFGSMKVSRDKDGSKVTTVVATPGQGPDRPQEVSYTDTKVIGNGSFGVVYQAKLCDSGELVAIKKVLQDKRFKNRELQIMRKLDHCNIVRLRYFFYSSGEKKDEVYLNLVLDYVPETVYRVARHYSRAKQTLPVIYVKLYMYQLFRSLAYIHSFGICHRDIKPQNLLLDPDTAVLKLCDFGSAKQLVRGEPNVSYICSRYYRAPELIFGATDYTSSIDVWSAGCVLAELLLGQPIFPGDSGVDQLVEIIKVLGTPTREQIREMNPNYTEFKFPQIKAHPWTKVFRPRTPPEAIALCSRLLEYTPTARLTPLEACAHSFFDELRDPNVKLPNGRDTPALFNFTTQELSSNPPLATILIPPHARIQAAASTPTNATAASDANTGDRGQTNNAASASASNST
The test compounds were screened in 1% DMSO (final) in the well. For 10-point titrations, 3-fold serial dilutions are conducted from the starting concentration of 10 μM.
• Bar-coded Corning, low volume NBS, black 384-well plate • 1. 2.5 μL—4× Test Compound or 100 nL 100× plus 2.4 μL kinase buffer • 2. 5 μL—2× Peptide/Kinase Mixture • 3. 2.5 μL—4× ATP Solution • 4. 30-second plate shake • 5. 60-minute Kinase Reaction incubation at room temperature • 6. 5 μL—Development Reagent Solution • 7. 30-second plate shake • 8. 60-minute Development Reaction incubation at room temperature • 9. Read on fluorescence plate reader and analyse the data
In step 2, the 2× GSK3β (GSK3 beta)/Ser/Thr (Glycogen synthase kinase-3 beta/Serine/Threonine) 09 mixture is prepared in 50 mM HEPES (4-(2-hydroxyethyl)-1-piperazineethanesulfonic acid) pH 7.5, 0.01% BRIJ-35, 10 mM MgCl2, 1 mM EGTA (egtazic acid). The final 10 μL Kinase Reaction consists of 0.22-0.92 ng GSK3β (GSK3 beta) and 2 μM Ser/Thr 09 in 50 mM HEPES pH 7.5, 0.01% BRIJ-35, 10 mM MgCl2, 1 mM EGTA.
In step 3 the ATP Solution is diluted to a 4× working concentration in Kinase Buffer (50 mM HEPES pH 7.5, 0.01% BRIJ-35, 10 mM MgCl2, 1 mM EGTA).
In Step 6 the Development Reagent is diluted 1:512 in Development Buffer (10× Novel PKC Lipid Mix: 2 mg/mL Phosphatidyl Serine, 0.2 mg/mL DAG in 20 mM HEPES, pH 7.4, 0.3% CHAPS).
SelectScreen® Kinase Profiling Service uses XLfit from IDBS. The dose response curve is curve fit to model number 205 (sigmoidal dose-response model).

For assay [4], the target named is T1, PCSK9. Description: cell-based.
Target sequence in this assay (Q8NBP7 31-152): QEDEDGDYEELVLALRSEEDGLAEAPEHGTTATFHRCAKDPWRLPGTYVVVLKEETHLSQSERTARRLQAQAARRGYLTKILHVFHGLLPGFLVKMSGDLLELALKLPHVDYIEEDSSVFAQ
Target sequence in this assay (Q8NBP7 153-692 V474I/G670E): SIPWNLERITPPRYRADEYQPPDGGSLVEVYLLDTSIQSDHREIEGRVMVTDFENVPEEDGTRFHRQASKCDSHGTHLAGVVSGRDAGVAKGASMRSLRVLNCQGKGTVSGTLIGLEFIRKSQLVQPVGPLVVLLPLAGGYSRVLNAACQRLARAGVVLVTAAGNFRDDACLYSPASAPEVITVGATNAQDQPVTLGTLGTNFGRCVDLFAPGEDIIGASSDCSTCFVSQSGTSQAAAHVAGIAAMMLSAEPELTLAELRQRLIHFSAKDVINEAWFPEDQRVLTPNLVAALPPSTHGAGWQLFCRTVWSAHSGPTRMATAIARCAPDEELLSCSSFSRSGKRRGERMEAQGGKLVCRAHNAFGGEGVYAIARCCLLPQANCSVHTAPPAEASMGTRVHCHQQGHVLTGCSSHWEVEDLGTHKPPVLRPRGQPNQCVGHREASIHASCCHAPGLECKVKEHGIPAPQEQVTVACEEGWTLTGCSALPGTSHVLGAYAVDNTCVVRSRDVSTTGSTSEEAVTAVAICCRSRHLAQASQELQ

T2 sequence (Q12809 whole entry): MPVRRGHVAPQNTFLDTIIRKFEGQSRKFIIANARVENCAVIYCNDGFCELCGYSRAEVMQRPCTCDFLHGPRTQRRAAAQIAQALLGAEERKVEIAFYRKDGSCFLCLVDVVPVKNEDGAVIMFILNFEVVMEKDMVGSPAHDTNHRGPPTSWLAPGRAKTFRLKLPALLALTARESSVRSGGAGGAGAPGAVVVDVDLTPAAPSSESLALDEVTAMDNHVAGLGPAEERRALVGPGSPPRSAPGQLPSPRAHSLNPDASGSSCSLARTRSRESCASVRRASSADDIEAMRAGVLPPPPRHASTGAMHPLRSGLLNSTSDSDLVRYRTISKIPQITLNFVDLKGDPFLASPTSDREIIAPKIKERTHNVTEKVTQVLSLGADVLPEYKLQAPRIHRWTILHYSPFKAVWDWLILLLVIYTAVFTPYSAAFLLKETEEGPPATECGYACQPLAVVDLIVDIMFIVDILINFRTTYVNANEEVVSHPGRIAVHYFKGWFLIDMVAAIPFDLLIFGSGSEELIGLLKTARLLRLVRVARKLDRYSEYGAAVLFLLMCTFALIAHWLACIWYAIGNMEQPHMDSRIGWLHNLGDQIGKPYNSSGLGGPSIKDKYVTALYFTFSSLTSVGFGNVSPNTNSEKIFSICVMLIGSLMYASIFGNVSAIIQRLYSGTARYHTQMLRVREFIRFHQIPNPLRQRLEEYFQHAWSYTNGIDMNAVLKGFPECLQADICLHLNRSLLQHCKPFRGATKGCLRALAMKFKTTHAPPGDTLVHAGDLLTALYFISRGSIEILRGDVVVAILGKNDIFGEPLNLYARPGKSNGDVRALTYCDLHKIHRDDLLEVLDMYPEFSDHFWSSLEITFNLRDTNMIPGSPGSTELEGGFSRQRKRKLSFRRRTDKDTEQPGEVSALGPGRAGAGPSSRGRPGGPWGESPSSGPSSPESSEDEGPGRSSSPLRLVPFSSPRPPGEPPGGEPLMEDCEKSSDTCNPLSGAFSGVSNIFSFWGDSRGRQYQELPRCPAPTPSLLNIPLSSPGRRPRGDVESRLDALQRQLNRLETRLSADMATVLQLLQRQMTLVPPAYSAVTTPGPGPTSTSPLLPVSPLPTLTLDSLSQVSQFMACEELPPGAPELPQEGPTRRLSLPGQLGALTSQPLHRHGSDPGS

By IC50 is commonly meant the concentration at which inhibition is half-maximal. Regarding `O=c1c(OC(F)F)cccn1-c1ccc(N[C@H]2CC[C@H](Nc3nc4cccnc4o3)C2)nc1` [Example 79, 3-(Difluoromethoxy)-6′-(((1S,3S)-3-(oxazolo[5,4-b]pyridin-2-ylamino)cyclopentyl)amino)-2H-[1,3′-bipyridin]-2-one], the IC50 in assay [1] is 4.1 nM; in assay [2], 4570 nM; in assay [3] it was more than 10 µM; in assay [4], 123 nM.

For the molecule `COc1cnc2[nH]c(N[C@H]3CC[C@H](Nc4ccc(-n5ccccc5=O)cn4)C3)nc2c1` [Example 57, 6′-(((1S,3S)-3-((6-Methoxy-3H-imidazo[4,5-b]pyridin-2-yl)amino)cyclopentyl)amino)-2H-[1,3′-bipyridin]-2-one], the IC50 was 4.3 nM in assay [1], more than 40000 nM in assay [2], 5.45 µM in assay [3] and 66 nM in assay [4].

Take `O=c1ccccn1-c1ccc(N[C@H]2CC[C@H](Nc3nc4cc(C(F)(F)F)cnc4[nH]3)C2)nc1` [Example 62, 6′-(((1S,3S)-3-((6-(Trifluoromethyl)-3H-imidazo[4,5-b]pyridin-2-yl)amino)cyclopentyl)amino)-2H-[1,3′-bipyridin]-2-one]: the IC50 in assay [1] was 2.2 nM; in assay [2] it was more than 40000 nM; in assay [3], 0.153 µM; in assay [4], 89 nM.

As to `Cc1ncc(-c2ccc(=O)n(-c3ccc(N[C@H]4CC[C@H](Nc5nc6cc(Br)cnc6[nH]5)C4)nc3)c2)cn1` [Example 52, 6′-(((1S,3S)-3-((6-Bromo-3H-imidazo[4,5-b]pyridin-2-yl)amino)cyclopentyl)amino)-5-(2-methylpyrimidin-5-yl)-2H-[1,3′-bipyridin]-2-one], the IC50 in assay [1] was 4.5 nM; in assay [2] it was more than 40000 nM; in assay [3] it was 0.178 µM; in assay [4], 590 nM.

For `O=c1ccccn1-c1ccc(N[C@H]2CC[C@H](Nc3nc4c(Cl)c(Cl)cnc4[nH]3)C2)nc1` [Example 50, 6′-(((1S,3S)-3-((6,7-Dichloro-3H-imidazo[4,5-b]pyridin-2-yl)amino)cyclopentyl)amino)-2H-[1,3′-bipyridin]-2-one], the IC50 amounted to 10.5 nM in assay [1], 32000 nM in assay [2], 0.024 µM in assay [3] and 190 nM in assay [4].

Take `O=c1ccccn1-c1ccc(N[C@H]2CC[C@H](Nc3nc4cc(Br)cnc4s3)C2)nc1` [Compound 87, 6′-(((1S,3S)-3-((6-Bromothiazolo[5,4-b]pyridin-2-yl)amino)cyclopentyl)amino)-2H-[1,3′-bipyridin]-2-one]: the IC50 in assay [1] stood at 1.4 nM; in assay [2], 4310 nM; in assay [3], 6.74 µM; in assay [4], 410 nM.

Regarding `O=c1cccnn1-c1ccc(N[C@H]2CC[C@H](Nc3nc4cccnc4[nH]3)C2)nc1` [Example 28, 2-(6-(((1S,3S)-3-((3H-Imidazo[4,5-b]pyridin-2-yl)amino)cyclopentyl)amino)pyridin-3-yl)pyridazin-3(2H)-one], the IC50 in assay [1] was 5.7 nM; in assay [2], more than 40000 nM; in assay [3], more than 10 µM; in assay [4] it was 173 nM.

`N#Cc1ccc2nc(N[C@H]3CC[C@H](Nc4ccc(-n5ccccc5=O)cn4)C3)oc2c1` [Example 5, 2-(((1S,3S)-3-((2-Oxo-2H-[1,3′-bipyridin]-6′-yl)amino)cyclopentyl)amino)benzo[d]oxazole-6-carbonitrile]: the IC50 was 8.9 nM in assay [1], 6000 nM in assay [2], 5.52 µM in assay [3] and 1720 nM in assay [4].

For `O=c1ccc(Cl)cn1-c1ccc(N[C@H]2CC[C@H](Nc3nc4cccnc4[nH]3)C2)nc1` [Example 71, 6′-(((1S,3S)-3-((3H-Imidazo[4,5-b]pyridin-2-yl)amino)cyclopentyl)amino)-5-chloro-2H-[1,3′-bipyridin]-2-one], the IC50 in assay [1] is 2.6 nM; in assay [2], more than 40000 nM; in assay [3], 2.83 µM; in assay [4], 123 nM.

On to `O=c1ccccn1-c1ccc(N[C@H]2CC[C@H](Nc3nc4cc(OC(F)(F)F)cnc4[nH]3)C2)nc1` [Example 51, 6′-(((1S,3S)-3-((6-(Trifluoromethoxy)-3H-imidazo[4,5-b]pyridin-2-yl)amino)cyclopentyl)amino)-2H-[1,3′-bipyridin]-2-one], for which the IC50 in assay [1] came to 2.5 nM; in assay [2], 30000 nM; in assay [3], 1.52 µM; in assay [4] it was 49 nM.

Take `CSc1cnc2[nH]c(N[C@H]3CC[C@H](Nc4ccc(-n5ccccc5=O)cn4)C3)nc2c1` [Example 59, 6′-(((1S,3S)-3-((6-(Methylthio)-3H-imidazo[4,5-b]pyridin-2-yl)amino)cyclopentyl)amino)-2H-[1,3′-bipyridin]-2-one]: the IC50 in assay [1] is 3.7 nM; in assay [2] it was more than 13500 nM; in assay [3], 0.794 µM; in assay [4], 106 nM.

`O=c1ccc(Cl)cn1-c1ccc(N[C@H]2CC[C@H](Nc3nc4cccnc4o3)C2)nc1` [Example 13, 5-Chloro-6′-(((1S,3S)-3-(oxazolo[5,4-b]pyridin-2-ylamino)cyclopentyl)amino)-2H-[1,3′-bipyridin]-2-one]: the IC50 was 13.3 nM in assay [1], 27800 nM in assay [2], more than 10 µM in assay [3] and 1600 nM in assay [4].

For the molecule `Cn1c(=O)n(-c2ccc(N[C@H]3CC[C@H](Nc4nc5cccnc5[nH]4)C3)nc2)c2ccccc21` [Example 36, 1-(6-(((1S,3S)-3-((3H-Imidazo[4,5-b]pyridin-2-yl)amino)cyclopentyl)amino)pyridin-3-yl)-3-methyl-1,3-dihydro-2H-benzo[d]imidazol-2-one], the IC50 was 0.6 nM in assay [1], 25800 nM in assay [2], more than 10 µM in assay [3] and 60 nM in assay [4].

With `COc1cccn(-c2ccc(N[C@H]3CC[C@H](Nc4nc5cccnc5[nH]4)C3)nc2)c1=O` [Example 41, 6′-(((1S,3S)-3-((3H-Imidazo[4,5-b]pyridin-2-yl)amino)cyclopentyl)amino)-3-methoxy-2H-[1,3′-bipyridin]-2-one], the IC50 in assay [1] was 3.5 nM; in assay [2] it was more than 40000 nM; in assay [3], 0.066 µM; in assay [4], 186 nM.

Regarding `COc1ccc(=O)n(-c2ccc(N[C@H]3CC[C@H](Nc4nc5cccnc5o4)C3)nc2)c1` [Example 14, 5-Methoxy-6′-(((1S,3S)-3-(oxazolo[5,4-b]pyridin-2-ylamino)cyclopentyl)amino)-2H-[1,3′-bipyridin]-2-one], the IC50 is 25.5 nM in assay [1], more than 40000 nM in assay [2], 0.423 µM in assay [3] and 632 nM in assay [4].

Regarding `N#Cc1ccc(=O)n(-c2ccc(N[C@H]3CC[C@H](Nc4nc5cccnc5s4)C3)nc2)c1` [Example 26, 2-Oxo-6′-(((1S,3S)-3-(thiazolo[5,4-b]pyridin-2-ylamino)cyclopentyl)amino)-2H-[1,3′-bipyridine]-5-carbonitrile], the IC50 in assay [1] was 6.8 nM; in assay [2], 19700 nM; in assay [3], more than 10 µM; in assay [4], 168 nM.
